In patent US11260049B2, “TRPV4 antagonists” (GlaxoSmithKline Intellectual Property (No. 2) Limited, priority 2016, dated 2022):

Molecular target: human TRPV4 (Homo sapiens (Human), UniProt Q9HBA0)
Assay: FLIPR assay for hTRPV4 expressed in BHK cells
Type: cell-based
Conditions: inhibition of Agonist Compound (EC80)-induced calcium signal; BHK/AC9 cells expressing human TRPV4; read-out: IC50
Description: FLIPR Assay for hTRPV4 Expressed in BHK Cells:
TRPV4 channel activation results in an influx of divalent and monovalent cations including calcium. The resulting changes in intracellular calcium were monitored using a calcium specific fluorescent dye Fluo-4 (MDS Analytical Technologies). BHK/AC9 cells transduced with BacMam virus expressing the human TRPV4 gene at a MOI of 78 were plated in a 384 well poly-D lysine coated plate (15,000 cells/well in 50 μL culture medium containing DMEM/F12 with 15 mM HEPES, 10% FBS, 1% Penicillin-Streptomycin and 1% L-glutamine). Cells were incubated for 24 hours at 37° C. and 5% CO2. Culture medium was then aspirated using a Tecan plate-washer and replaced with 20 μL/well of dye loading buffer: HBSS, 500 μM Brilliant Black (MDS Analytical Technologies), and 2 μM Fluo-4 AM. Dye loaded plates were then incubated in the dark at room temperature for 1˜1.5 hours.

human TRPV4, sequence (Q9HBA0 whole entry): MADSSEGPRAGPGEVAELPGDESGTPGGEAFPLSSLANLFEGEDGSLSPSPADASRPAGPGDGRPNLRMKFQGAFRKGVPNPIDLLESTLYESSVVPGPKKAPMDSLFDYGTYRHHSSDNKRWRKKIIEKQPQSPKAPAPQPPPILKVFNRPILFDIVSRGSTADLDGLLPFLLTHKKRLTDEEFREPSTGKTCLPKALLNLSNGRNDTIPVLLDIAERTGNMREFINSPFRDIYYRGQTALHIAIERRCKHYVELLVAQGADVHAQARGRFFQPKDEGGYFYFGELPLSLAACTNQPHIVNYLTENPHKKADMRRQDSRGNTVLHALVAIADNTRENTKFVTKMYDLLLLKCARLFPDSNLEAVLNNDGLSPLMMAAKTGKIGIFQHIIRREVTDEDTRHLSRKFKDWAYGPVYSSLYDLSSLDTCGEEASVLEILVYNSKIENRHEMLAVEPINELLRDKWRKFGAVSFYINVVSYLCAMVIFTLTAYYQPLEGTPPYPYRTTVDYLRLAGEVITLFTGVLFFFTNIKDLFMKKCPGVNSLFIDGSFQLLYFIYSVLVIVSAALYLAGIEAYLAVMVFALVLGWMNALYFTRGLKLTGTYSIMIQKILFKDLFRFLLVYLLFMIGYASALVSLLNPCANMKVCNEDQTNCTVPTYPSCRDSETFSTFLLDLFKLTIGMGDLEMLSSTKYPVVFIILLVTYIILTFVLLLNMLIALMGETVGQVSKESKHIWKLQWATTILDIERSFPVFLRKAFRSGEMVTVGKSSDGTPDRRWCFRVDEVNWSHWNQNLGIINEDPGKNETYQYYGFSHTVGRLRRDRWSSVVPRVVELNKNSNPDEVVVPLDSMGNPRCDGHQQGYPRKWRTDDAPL

SMILES | IC50 [nM]
N#Cc1ccc(S(=O)(=O)N2C[C@H](S(=O)(=O)c3ccc(Cl)c(F)c3)[C@](O)(CO)C2)c(Cl)c1 [Example 107, 3-chloro-4-(((3R,4S)-4-((4-chloro-3-fluorophenyl)sulfonyl)-3-hydroxy-3-(hydroxymethyl)pyrrolidin-1-yl)sulfonyl)benzonitrile] | 0.1 to 10
N#Cc1ccc(S(=O)(=O)[C@H]2CN(S(=O)(=O)c3ccc(C(F)(F)F)cc3Cl)C[C@@]2(O)CO)cc1F [Example 14, 4-(((3S,4R)-1-((2-chloro-4-(trifluoromethyl)phenyl)sulfonyl)-4-hydroxy-4-(hydroxymethyl)pyrrolidin-3-yl)sulfonyl)-2-fluorobenzonitrile] | 0.1 to 10
N#Cc1ccc(S(=O)(=O)N2C[C@H](S(=O)(=O)c3ccc(Cl)cc3)[C@](O)(CO)C2)c(C(F)F)c1 [Example 48, 4-(((3R,4S)-4-((4-chlorophenyl)sulfonyl)-3-hydroxy-3-(hydroxymethyl)pyrrolidin-1-yl)sulfonyl)-3-(difluoromethyl)benzonitrile] | 0.1 to 10
N#Cc1ccc(S(=O)(=O)[C@H]2CN(S(=O)(=O)c3ccccc3Br)C[C@@]2(O)CO)cc1 [Example 33, 4-(((3S,4R)-1-((2-bromophenyl)sulfonyl)-4-hydroxy-4-(hydroxymethyl)pyrrolidin-3-yl)sulfonyl)benzonitrile] | 10 to 100
N#Cc1ccc(S(=O)(=O)[C@H]2CN(S(=O)(=O)c3ccccc3Cl)C[C@]2(O)CO)cc1F [Example 4, 4-(((3S,4S)-1-((2-chlorophenyl)sulfonyl)-4-hydroxy-4-(hydroxymethyl)pyrrolidin-3-yl)sulfonyl)-2-fluorobenzonitrile] | 10 to 100
N#Cc1c(F)cc(S(=O)(=O)[C@H]2CN(S(=O)(=O)c3ccc(Cl)cc3Cl)C[C@@]2(O)CO)cc1F [Example 87, 4-(((3S,4R)-1-((2,4-dichlorophenyl)sulfonyl)-4-hydroxy-4-(hydroxymethyl)pyrrolidin-3-yl)sulfonyl)-2,6-difluorobenzonitrile] | 0.1 to 10
N#Cc1ccc(S(=O)(=O)[C@H]2CN(S(=O)(=O)c3ccc(C(F)F)cc3Cl)C[C@@]2(O)CO)cc1 [Example 42, 4-(((3S,4R)-1-((2-chloro-4-(difluoromethyl)phenyl)sulfonyl)-4-hydroxy-4-(hydroxymethyl)pyrrolidin-3-yl)sulfonyl)benzonitrile] | 10 to 100
N#Cc1ccc(S(=O)(=O)N2C[C@H](S(=O)(=O)c3ccc(C(F)(F)F)cn3)[C@](O)(CO)C2)c(OC2CC2)c1 [Example 61, 3-cyclopropoxy-4-(((3R,4S)-3-hydroxy-3-(hydroxymethyl)-4-((5-(trifluoromethyl)pyridin-2-yl)sulfonyl)pyrrolidin-1-yl)sulfonyl)benzonitrile] | 10 to 100
O=S(=O)(c1ccc(Cl)cc1)[C@H]1CN(S(=O)(=O)c2ccc(C(F)(F)F)cc2Cl)C[C@@]1(O)CO [Example 97, (3R,4S)-1-((2-chloro-4-(trifluoromethyl)phenyl)sulfonyl)-4-((4-chlorophenyl)sulfonyl)-3-(hydroxymethyl)pyrrolidin-3-ol] | 10 to 100
N#Cc1ccc(S(=O)(=O)N2C[C@H](S(=O)(=O)c3ccc(Cl)cn3)[C@@](O)(CO)C2)c(Cl)c1 [Example 109, 3-chloro-4-(((3S,4S)-4-((5-chloropyridin-2-yl)sulfonyl)-3-hydroxy-3-(hydroxymethyl)pyrrolidin-1-yl)sulfonyl)benzonitrile] | 10 to 100
N#Cc1ccc(S(=O)(=O)[C@H]2CN(S(=O)(=O)c3ccc(C(F)(F)F)cc3Cl)C[C@]2(O)CO)cc1F [Example 7, 4-(((3S,4S)-1-((2-chloro-4-(trifluoromethyl)phenyl)sulfonyl)-4-hydroxy-4-(hydroxymethyl)pyrrolidin-3-yl)sulfonyl)-2-fluorobenzonitrile] | 10 to 100
N#Cc1ccc(S(=O)(=O)N2C[C@H](S(=O)(=O)c3ccc(Cl)cc3)[C@](O)(CO)C2)c(Br)c1 [Example 38, 3-bromo-4-(((3R,4S)-4-((4-chlorophenyl)sulfonyl)-3-hydroxy-3-(hydroxymethyl)pyrrolidin-1-yl)sulfonyl)benzonitrile] | 0.1 to 10
N#Cc1cc(C(F)(F)F)ccc1S(=O)(=O)N1C[C@H](S(=O)(=O)c2ccc(Cl)cc2)[C@](O)(CO)C1 [Example 117, 2-(((3R,4S)-4-((4-chlorophenyl)sulfonyl)-3-hydroxy-3-(hydroxymethyl)pyrrolidin-1-yl)sulfonyl)-5-(trifluoromethyl)benzonitrile] | 0.1 to 10
N#Cc1ccc(S(=O)(=O)N2C[C@H](S(=O)(=O)c3ccc(Br)cc3)[C@](O)(CO)C2)c(Cl)c1 [Example 74, 4-(((3R,4S)-4-((4-bromophenyl)sulfonyl)-3-hydroxy-3-(hydroxymethyl)pyrrolidin-1-yl)sulfonyl)-3-chlorobenzonitrile] | 0.1 to 10
N#Cc1ccc(S(=O)(=O)N2C[C@H](S(=O)(=O)c3ccc(C(F)(F)F)nc3)[C@](O)(CO)C2)c(C(F)(F)F)c1 [Example 27, 4-(((3R,4S)-3-hydroxy-3-(hydroxymethyl)-4-((6-(trifluoromethyl)pyridin-3-yl)sulfonyl)pyrrolidin-1-yl)sulfonyl)-3-(trifluoromethyl)benzonitrile] | 10 to 100
N#Cc1cc(C(F)(F)F)ccc1S(=O)(=O)N1C[C@H](S(=O)(=O)c2cc(F)c(F)c(F)c2)[C@](O)(CO)C1 [Example 94, 2-(((3R,4S)-3-hydroxy-3-(hydroxymethyl)-4-((3,4,5-trifluorophenyl)sulfonyl)pyrrolidin-1-yl)sulfonyl)-5-(trifluoromethyl)benzonitrile] | 10 to 100
N#Cc1ccc(S(=O)(=O)[C@H]2CN(S(=O)(=O)c3ccc(C(F)(F)F)cc3Cl)C[C@@]2(O)CO)cc1 [Example 89, 4-(((3S,4R)-1-((2-chloro-4-(trifluoromethyl)phenyl)sulfonyl)-4-hydroxy-4-(hydroxymethyl)pyrrolidin-3-yl)sulfonyl)benzonitrile] | 10 to 100
N#Cc1ccc(S(=O)(=O)N2C[C@H](S(=O)(=O)c3ccc(Cl)cc3)[C@](O)(CO)C2)c(F)c1 [Example 21, 4-(((3R,4S)-4-((4-chlorophenyl)sulfonyl)-3-hydroxy-3-(hydroxymethyl)pyrrolidin-1-yl)sulfonyl)-3-fluorobenzonitrile] | 10 to 100
N#Cc1ccc(S(=O)(=O)[C@H]2CN(S(=O)(=O)c3cc(F)c(Cl)cc3Cl)C[C@@]2(O)CO)cc1 [Example 63, 4-(((3S,4R)-1-((2,4-dichloro-5-fluorophenyl)sulfonyl)-4-hydroxy-4-(hydroxymethyl)pyrrolidin-3-yl)sulfonyl)benzonitrile] | 10 to 100
N#Cc1ccc(S(=O)(=O)N2C[C@H](S(=O)(=O)c3ccc(C#N)c(F)c3)[C@@](O)(CO)C2)c(Cl)c1 [Example 3, 4-(((3S,4S)-1-((2-chloro-4-cyanophenyl)sulfonyl)-4-hydroxy-4-(hydroxymethyl)pyrrolidin-3-yl)sulfonyl)-2-fluorobenzonitrile] | 0.1 to 10
O=S(=O)(c1ccc(Cl)c(Cl)c1)[C@H]1CN(S(=O)(=O)c2ccc(Cl)cc2Cl)C[C@]1(O)CO [Example 115, (3S,4S)-1-((2,4-dichlorophenyl)sulfonyl)-4-((3,4-dichlorophenyl)sulfonyl)-3-(hydroxymethyl)pyrrolidin-3-ol] | 10 to 100
CCc1ccc(S(=O)(=O)[C@H]2CN(S(=O)(=O)c3ccc(C#N)cc3Cl)C[C@@]2(O)CO)cc1 [Example 104, 3-chloro-4-(((3R,4S)-4-((4-ethylphenyl)sulfonyl)-3-hydroxy-3-(hydroxymethyl)pyrrolidin-1-yl)sulfonyl)benzonitrile] | 10 to 100
N#Cc1ccc(S(=O)(=O)[C@H]2CN(S(=O)(=O)c3ccc(C(F)(F)F)cc3Cl)C[C@]2(O)CO)cc1 [Example 90, 4-(((3S,4S)-1-((2-chloro-4-(trifluoromethyl)phenyl)sulfonyl)-4-hydroxy-4-(hydroxymethyl)pyrrolidin-3-yl)sulfonyl)benzonitrile] | 10 to 100
N#CCc1cc(Cl)ccc1S(=O)(=O)N1C[C@H](S(=O)(=O)c2ccc(Cl)cc2)[C@](O)(CO)C1 [Example 66, 2-(5-chloro-2-(((3R,4S)-4-((4-chlorophenyl)sulfonyl)-3-hydroxy-3-(hydroxymethyl)pyrrolidin-1-yl)sulfonyl)phenyl)acetonitrile] | 10 to 100
N#Cc1ccc(S(=O)(=O)N2C[C@H](S(=O)(=O)c3ccc(C(F)(F)F)nc3)[C@](O)(CO)C2)c(Br)c1 [Example 39, 3-bromo-4-(((3R,4S)-3-hydroxy-3-(hydroxymethyl)-4-((6-(trifluoromethyl)pyridin-3-yl)sulfonyl)pyrrolidin-1-yl)sulfonyl)benzonitrile] | 10 to 100
N#Cc1ccc(S(=O)(=O)N2C[C@H](S(=O)(=O)c3ccc(Cl)cc3)[C@@](O)(CN)C2)cc1 [Example 127, 4-(((3R,4S)-3-(aminomethyl)-4-((4-chlorophenyl)sulfonyl)-3-hydroxypyrrolidin-1-yl)sulfonyl)benzonitrile] | 10 to 100
O=S(=O)(c1ccc(F)c(F)c1)[C@H]1CN(S(=O)(=O)c2ccc(Cl)cc2Cl)C[C@@]1(O)CO [Example 85, (3R,4S)-1-((2,4-dichlorophenyl)sulfonyl)-4-((3,4-difluorophenyl)sulfonyl)-3-(hydroxymethyl)pyrrolidin-3-ol] | 10 to 100
N#Cc1ccc(S(=O)(=O)[C@H]2CN(S(=O)(=O)c3ccc(Cl)cc3Cl)C[C@]2(O)CO)cc1F [Example 75, 4-(((3S,4S)-1-((2,4-dichlorophenyl)sulfonyl)-4-hydroxy-4-(hydroxymethyl)pyrrolidin-3-yl)sulfonyl)-2-fluorobenzonitrile] | 0.1 to 10
